From BindingDB's records for patent US10774051 (SHIONOGI & CO., LTD., 2020) come the findings set out here.

The assay concerns the target T1, P2X purinoceptor 7 [Y155H,R270H] (Homo sapiens, UniProt Q99572, R270H/Y155H).
T1 construct: gene P2RX7
Put plainly: Evaluation of a Human P2X7 Receptor Inhibitory Activity. On the procedure: Stably expressing cell line (1321N1 cell transfected with the human P2X7 receptor gene (GenBank accession number NM_002562.5 including T606C and G952A SNP)) was used. The cells were seeded in a 384-well microtiter plate at a concentration of 8000 cells/well and cultured in the medium (10% fetal bovine serum, 25 mM HEPES, 1% penicillin and streptomycin in DMEM) for one day at 37° C. under 5% carbon dioxide atmosphere. After replacing with 20 μL of the HBSS buffer (20 mM HEPES, 55.6 mM D-glucose, 1×HBSS(−), pH7.4-7.5), 15 μL of 17.3 μM Yo-Pro solution in the HBSS buffer was added. The plate was placed in high-throughput cellular screening system FLIPR TETRA (Molecullar Devices, LLC.) and 15 μL of 130 μM BzATP solution in the HBSS buffer was added. Measurement of fluorescence intensity by FLIPR TETRA was started. After eight minutes, 15 μL of DMSO solutions containing different concentrations of the compound of the present invention as prepared by dilution with the HBSS buffer were dispensed to each well through the built-in automatic dispenser, and the measurement of fluorescence intensity was continued for 20 minutes. […] Changing values of fluorescence intensity by the compound of the present invention were calculated by difference between maximum and minimum fluorescence intensity for 20 minutes. IC50 was calculated using logistic approximation.

T1 sequence (Q99572 whole entry Y155H/R270H, looked up): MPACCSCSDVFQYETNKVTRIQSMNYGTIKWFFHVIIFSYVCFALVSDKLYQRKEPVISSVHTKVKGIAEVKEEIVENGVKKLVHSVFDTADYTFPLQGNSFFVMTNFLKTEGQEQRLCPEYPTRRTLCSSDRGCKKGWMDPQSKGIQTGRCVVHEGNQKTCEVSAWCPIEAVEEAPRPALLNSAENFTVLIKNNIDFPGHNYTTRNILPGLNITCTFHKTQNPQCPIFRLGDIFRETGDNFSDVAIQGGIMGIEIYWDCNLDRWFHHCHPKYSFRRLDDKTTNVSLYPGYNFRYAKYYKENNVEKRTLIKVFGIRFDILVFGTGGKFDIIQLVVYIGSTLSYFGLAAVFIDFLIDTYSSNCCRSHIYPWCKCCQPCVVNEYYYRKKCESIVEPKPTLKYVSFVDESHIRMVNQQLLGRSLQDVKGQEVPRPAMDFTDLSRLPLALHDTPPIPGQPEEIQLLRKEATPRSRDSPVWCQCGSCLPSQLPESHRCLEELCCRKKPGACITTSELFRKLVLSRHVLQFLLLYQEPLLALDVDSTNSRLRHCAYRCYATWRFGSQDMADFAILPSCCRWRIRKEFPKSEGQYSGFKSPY

In turn, `COc1cn(Cc2cc(F)c(F)c(F)c2)c(Nc2cccc(Cl)c2C)nc1=O` [US10774051, Compound I-0004] had an IC50 of under 10 nM.

For orientation: IC50 means the concentration at which inhibition is half-maximal. Read a high IC50 as a need for much substance.
